These compounds were tested against HIV-1 RT (Human immunodeficiency virus type 1 group M subtype B, UniProt P03366) (assay: HIV Reverse Transcriptase Assay: Inhibitor IC50 Determination). Details: purified recombinant enzyme, poly(rA)/oligo(dT)16 template-primer, [3H] dTTP, 37° C. for 30 min; read-out: RT inhibition IC50.
Format: biochemical
Method: HIV Reverse Transcriptase Assay: Inhibitor IC50 Determination
HIV-1 RT assay was carried out in 96-well Millipore MultiScreen MADVNOB50 plates using purified recombinant enzyme and a poly(rA)/oligo(dT)16 template-primer in a total volume of 50 μL. The assay constituents were 50 mM Tris/HCl, 50 mM NaCl, 1 mM EDTA, 6 mM MgCl2, 5 μM dTTP, 0.15 μCi [^3H] dTTP, 5 μg/ml poly (rA) pre annealed to 2.5 μg/ml oligo (dT)16 and a range of inhibitor concentrations in a final concentration of 10% DMSO. Reactions were initiated by adding 4 nM HIV-1 RT and after incubation at 37° C. for 30 min, they were stopped by the addition of 50 μl ice cold 20% TCA and allowed to precipitate at 4° C. for 30 min. The precipitates were collected by applying vacuum to the plate and sequentially washing with 3×200 μl of 10% TCA and 2×200 μl 70% ethanol. Finally, the plates were dried and radioactivity counted in a Packard TopCounter after the addition of 25 μl scintillation fluid per well. IC50's were calculated by plotting % inhibition versus log10 inhibitor concentrations.

Row | Structure (SMILES) | IC50 [nM]
1 | O=c1[nH]nc(Cc2ccc(Cl)c(Oc3ccccc3Cl)c2)s1 [Compound 4, 5-[4-Chloro-3-(2-chloro-phenoxy)-benzyl]-3H-[1,3,4]thiadiazol-2-one] | 195
2 | CCn1c(Cc2ccc(Cl)c(Oc3ccccc3Cl)c2)n[nH]c1=O [Compound 7, 5-[4-Chloro-3-(2-chloro-phenoxy)-benzyl]-4-ethyl-2,4-dihydro-[1,2,4]triazol-3-one] | 447
3 | Cn1c(Cc2ccc(Cl)c(Oc3cccc(Cl)c3)c2)n[nH]c1=O [Compound 8, 5-[4-Chloro-3-(3-chloro-phenoxy)-benzyl]-4-methyl-2,4-dihydro-[1,2,4]triazol-3-one] | 286
4 | CCn1c(Cc2ccc(Cl)c(Oc3cccc(Cl)c3)c2)n[nH]c1=O [Compound 9, 5-[4-Chloro-3-(3-chloro-phenoxy)-benzyl]-4-ethyl-2,4-dihydro-[1,2,4]triazol-3-one] | 444

Reference: patent publication US7208509B2, “Non-nucleoside reverse transcriptase inhibitors” (Roche Palo Alto LLC, priority 2003, dated 2007)
